pKi: −log10 of the molar value.
Molecular target: T1, human 5-HT5A receptor (Homo sapiens, UniProt P47898)
T1 construct: expressed in transfected cells; membranes used
Assay: Test on a human 5-HT5A receptor binding inhibition ([3H]5-CT)
Details: membrane from HEK293 cells for forced expression of human 5-HT5A receptor; Ki calculated from IC50 and Kd of [3H]5-CT (4.95 nM)
Method: The ORF (open reading frame; protein coding region) of a human 5-HT5A receptor (Genbank AF498985) was cloned from a human hippocampus cDNA library, and then inserted into a pCR2.1 vector (Invitrogen), and Escherichia coli containing the plasmid was cultured in a large amount. Next, the full-length cDNA sequence of the human 5-HT5A receptor was analyzed, and recombined into a pcDNA3.1 vector (Invitrogen) as an expression vector and cultured in a large amount. HEK293 established cells (ATCC) derived from the human fetal kidney were seeded, the expression plasmid (1 μg) obtained above were added thereto with LIPOFECTAMINE 2000 (Invitrogen; 2 μl), the gene was transfected into HEK293 cells, and the expression cells were screened with a drug-resistant marker, Geneticin (G418 sulfate 500 μg/ml; Kanto Chemical Co., Inc.). Thus prepared recombinant cells which expressed the gene were cultured in a medium containing D-MEM (Dulbecco's modified eagle medium, Sigma), 10% FCS (Fetal calf serum: fetal bovine serum), 1% Pc./Sm (Penicillin/Streptomycin, Invitrogen), and 500 μg/ml G418 for 3 days. These experimental operations followed a manual for gene operation experiment and an instruction appended in a reagent, and the like, such as a known method (Sambrook, J. et al, Molecular Cloning-A Laboratory Manual”, Cold Spring Harabor laboratory, NY, 1989).
HEK293 cells for forced expressions of a human 5-HT5A receptor were cultured in a F500 plate, and scraped with a scraper. After centrifugation, the precipitate was collected, and an incubation buffer (50 mM Tris (HCl) (pH 7.4), 10 mM MgSO4, and 0.5 mM EDTA (ethylenediamine tetraacetic acid)) was added thereto. After homogenization, it was further centrifuged, and the incubation buffer was added to the precipitate, followed by thoroughly suspending. The operation was repeated, and protein concentration was measured, thereby completing preparation of the membrane.
A solution of the compound to be tested and 100 μM 5-CT (5-carboxamidetriptamine) in DMSO was added to a 96-well plate at 2 μl/well, suspended in an incubation buffer, and a membrane from HEK293 cells for forced expressions of a human 5-HT5A receptor prepared at 200 μg/ml was added at 100 μl/well. After incubation at room temperature for 15 minutes, a [^3H]5-CT solution (2 nM [^3H]5-CT, incubation buffer) was added thereto at 100 μl/well.
Separately, 100 μl of the solution was distributed into a liquid scintillation vial, and 2 ml of Aquasol II (registered trademark) was added thereto, followed by stirring. Then, radioactivity was measured by a liquid scintillation counter. It was incubated at 37° C. for 60 minutes. The reaction mixture was sucked into 96-well GF/C filter plate that had been pre-treated with 0.2% polyethyleneimine, and washed six times with an ice-cooled, 50 mM Tris (pH 7.5) buffer. The GF/C filter plate was dried.
Microscint TMPS (registered trademark) was added thereto at 40 μl/well. Radioactivity remaining on the GF/C filter plate was measured by a top counter.
The [^3H]5-CT binding inhibiting activity by the compound to be tested in each experiment was determined as an IC50 value with a radioactivity upon addition of DMSO alone being 0% inhibition, and a radioactivity upon addition of 1 μM 5-CT being 100% inhibition. Separately, Ki values were calculated from the Kd value of the [^3H]5-CT determined from Scatchard analysis, by the following equation.
Ki=IC50 (1+Concentraion of ligand added/Kd (4.95 nM))

T1 sequence (P47898 whole entry): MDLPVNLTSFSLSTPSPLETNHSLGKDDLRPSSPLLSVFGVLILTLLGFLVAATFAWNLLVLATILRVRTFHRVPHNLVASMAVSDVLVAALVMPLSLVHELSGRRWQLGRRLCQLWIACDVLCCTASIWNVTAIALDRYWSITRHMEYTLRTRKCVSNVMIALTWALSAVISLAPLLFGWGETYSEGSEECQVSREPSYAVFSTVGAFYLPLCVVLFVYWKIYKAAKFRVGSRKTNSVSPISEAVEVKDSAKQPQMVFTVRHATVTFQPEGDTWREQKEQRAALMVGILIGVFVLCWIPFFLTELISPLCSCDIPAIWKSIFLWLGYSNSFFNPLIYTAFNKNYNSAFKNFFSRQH

SMILES | pKi
N#Cc1cccnc1-c1cccc2ccc(C(=O)N=C(N)N)cc12 [Example 181] | 6.52 to 7.52
Cc1c(-c2cccc3ccc(C(=O)N=C(N)N)cc23)ncnc1C1CC1 [Example 193] | 6.52 to 7.52
NC(N)=NC(=O)c1ccc2cccc(-c3cncc(Cl)c3)c2c1 [Example 74] | 7.52 to 8.52
NC(N)=NC(=O)c1ccc2cccc(-c3ccc(F)c4c3C(=O)CC4)c2c1 [Example 126] | 6.52 to 7.52
COc1cccc(C#N)c1-c1cccc2ccc(C(=O)N=C(N)N)cc12 [Example 30] | 7.52 to 8.52
Cc1ccc(-c2cccc3ccc(C(=O)N=C(N)N)cc23)cn1 [Example 24] | 7.52 to 8.52
NC(N)=NC(=O)c1ccc2cccc(-c3ccnc(F)c3)c2c1 [Example 52] | 7.52 to 8.52
COc1ccc(F)c(-c2cccc3ccc(C(=O)N=C(N)N)cc23)c1 [Example 41] | 7.52 to 8.52
NC(N)=NC(=O)c1ccc2cccc(-c3nccc4ccccc34)c2c1 [Example 165] | 7.52 to 8.52
Cc1cnc(-c2cccc3ccc(C(=O)N=C(N)N)cc23)c(Cl)c1 [Example 200] | 7.52 to 8.52
COc1ccc(F)cc1-c1cccc2ccc(C(=O)N=C(N)N)cc12 [Example 34] | 7.52 to 8.52
COc1cccnc1-c1cccc2ccc(C(=O)N=C(N)N)cc12 [Example 195] | 6.52 to 7.52
Cc1ccc(-c2cccc3ccc(C(=O)N=C(N)N)cc23)c(F)n1 [Example 86] | 7.52 to 8.52
NC(=O)c1cc(-c2cccc3ccc(C(=O)N=C(N)N)cc23)ccn1 [Example 171] | 6.52 to 7.52
NC(N)=NC(=O)c1ccc2cccc(-c3ccnc(C4CC4)c3C3CC3)c2c1 [Example 202] | 7.52 to 8.52
Cc1ccc2ccc(C(=O)N=C(N)N)cc2c1-c1ccccc1O [Example 162] | 7.52 to 8.52

Next, values leading:

pKi | SMILES
7.52 to 8.52 | Cc1ccncc1-c1cccc2ccc(C(=O)N=C(N)N)cc12 [Example 100]
8.52 to 9.52 | NC(N)=NC(=O)c1ccc2cccc(-c3cc(C4CC4)ncc3Cl)c2c1 [Example 185]
8.52 to 9.52 | NC(N)=NC(=O)c1ccc2cccc(-c3c(F)cc(Cl)cc3F)c2c1 [Example 43]
8.52 to 9.52 | NC(N)=NC(=O)c1ccc2cccc(-c3ccccc3F)c2c1 [Example 6]
8.52 to 9.52 | NC(N)=NC(=O)c1ccc2cccc(-c3ccccc3C3CC3)c2c1 [Example 138]
8.52 to 9.52 | NC(N)=NC(=O)c1ccc2cccc(-c3cc(F)ccc3F)c2c1 [Example 68]
7.52 to 8.52 | NC(N)=NC(=O)c1ccc2cccc(C3=CCOCC3)c2c1 [Example 22]
7.52 to 8.52 | Cc1nc(C2CC2)sc1-c1cccc2ccc(C(=O)N=C(N)N)cc12 [Example 163]
8.52 to 9.52 | CCOc1ncc(Cl)c(-c2cccc3ccc(C(=O)N=C(N)N)cc23)c1Cl [Example 67]
8.52 to 9.52 | COc1cc(C#N)ccc1-c1c(Cl)ccc2ccc(C(=O)N=C(N)N)cc12 [Example 145]
8.52 to 9.52 | NC(N)=NC(=O)c1ccc2cccc(-c3ccc(F)cc3Cl)c2c1 [Example 60]
8.52 to 9.52 | N#Cc1ccc(-c2cccc3ccc(C(=O)N=C(N)N)cc23)s1 [Example 50]
8.52 to 9.52 | COc1ccccc1-c1c(Cl)ccc2ccc(C(=O)N=C(N)N)cc12 [Example 124]
8.52 to 9.52 | Cc1ccc2ccc(C(=O)N=C(N)N)cc2c1-c1ccc(F)cc1 [Example 11]
8.52 to 9.52 | NC(N)=NC(=O)c1ccc2cccc(-c3cnccc3Cl)c2c1 [Example 73]
8.52 to 9.52 | N#Cc1ccc(-c2c(F)ccc3ccc(C(=O)N=C(N)N)cc23)cc1 [Example 9]
8.52 to 9.52 | NC(N)=NC(=O)c1ccc2ccc(F)c(-c3ccncc3F)c2c1 [Example 113]
8.52 to 9.52 | NC(N)=NC(=O)c1ccc2cccc(-c3cccc(F)c3F)c2c1 [Example 71]
8.52 to 9.52 | N#Cc1cccc(-c2cccc3ccc(C(=O)N=C(N)N)cc23)c1F [Example 80]
8.52 to 9.52 | COc1cccc(F)c1-c1cccc2ccc(C(=O)N=C(N)N)cc12 [Example 18]
8.52 to 9.52 | NC(N)=NC(=O)c1ccc2cccc(-c3ccc(Cl)cc3O)c2c1 [Example 150]
8.52 to 9.52 | NC(N)=NC(=O)c1ccc2cccc(-c3cccs3)c2c1 [Example 46]

From patent publication US20110306621A1, “ACYLGUANIDINE DERIVATIVES” (priority 2009, published 2011)
